Test system: AMPK
Assay: AMPK enzyme activity assay (Delfia technology, AMARA peptide substrate)
Type: biochemical
Conditions: compound at 30 μM vs AMP at 200 μM
Outline: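 Value is the ratio of compound (30 μM) to AMP (200 μM) response, each as % of basal control. Phosphorylation of the AMARA peptide after AMPK addition was read by Delfia with an anti-phosphoserine antibody.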

Row | Activity: Ratio between the % of control (basal activity) of compound of formula (1) at 30 μM and the % of control (basal activity) of AMP (natural substrate) at 200 μM | Structure (SMILES)
1 | B (50%≦B<75%) | O=C1Nc2sc(F)c(-c3ccc(Cl)cc3)c2C(=O)C1(F)c1ccccc1 (centres unmarked) [No 173, 3-(4-chlorophenyl)-2,5-difluoro-5-phenyl-7H-thieno[2,3-b]pyridine-4,6-dione]
2 | A (0%<A<50%) | O=C1Nc2scc(-c3ccc(F)cc3OCc3ccccc3)c2C(=O)C1(F)c1ccccc1 (centres unmarked) [No 174, 3-(2-benzyloxy-4-fluoro-phenyl)-5-fluoro-5-phenyl-7H-thieno[2,3-b]pyridine-4,6-dione]
3 | A (0%<A<50%) | O=C1Nc2sc(F)c(-c3ccc(F)cc3OCc3ccccc3)c2C(=O)C1(F)c1ccccc1 (centres unmarked) [No 175, 3-(2-benzyloxy-4-fluoro-phenyl)-2,5-difluoro-5-phenyl-7H-thieno[2,3-b]pyridine-4,6-dione]
4 | C (C≧75%) | Cc1cccc(C2(Cl)C(=O)Nc3sc(Cl)c(-c4ccc(F)cc4O)c3C2=O)c1 (centres unmarked) [No 176, 2,5-dichloro-3-(4-fluoro-2-hydroxy-phenyl)-5-(m-tolyl)-7H-thieno[2,3-b]pyridine-4,6-dione]
5 | A (0%<A<50%) | O=C1Nc2scc(-c3ccccc3F)c2C(=O)C1(F)c1ccccc1 (centres unmarked) [No 177, 5-fluoro-3-(2-fluorophenyl)-5-phenyl-7H-thieno[2,3-b]pyridine-4,6-dione]
6 | B (50%≦B<75%) | O=C1Nc2sc(F)c(-c3ccccc3F)c2C(=O)C1(F)c1ccccc1 (centres unmarked) [No 178, 2,5-difluoro-3-(2-fluorophenyl)-5-phenyl-7H-thieno[2,3-b]pyridine-4,6-dione]
7 | A (0%<A<50%) | O=C1Nc2scc(-c3ccc(F)cc3F)c2C(=O)C1(F)c1ccccc1 (centres unmarked) [No 179, 3-(2,4-difluorophenyl)-5-fluoro-5-phenyl-7H-thieno[2,3-b]pyridine-4,6-dione]
8 | A (0%<A<50%) | COc1ccccc1-c1csc2c1C(=O)C(F)(c1ccccc1)C(=O)N2 (centres unmarked) [No 180, 5-fluoro-3-(2-methoxyphenyl)-5-phenyl-7H-thieno[2,3-b]pyridine-4,6-dione]
9 | A (0%<A<50%) | COc1ccccc1-c1c(F)sc2c1C(=O)C(F)(c1ccccc1)C(=O)N2 (centres unmarked) [No 181, 2,5-difluoro-3-(2-methoxyphenyl)-5-phenyl-7H-thieno[2,3-b]pyridine-4,6-dione]
10 | C (C≧75%) | COc1cccc(C2(F)C(=O)Nc3scc(-c4ccccc4)c3C2=O)c1 (centres unmarked) [No 182, 5-fluoro-5-(3-methoxyphenyl)-3-phenyl-7H-thieno[2,3-b]pyridine-4,6-dione]
11 | B (50%≦B<75%) | COc1cccc(C2(F)C(=O)Nc3sc(F)c(-c4ccccc4)c3C2=O)c1 (centres unmarked) [No 183, 2,5-difluoro-5-(3-methoxyphenyl)-3-phenyl-7H-thieno[2,3-b]pyridine-4,6-dione]
12 | C (C≧75%) | Cc1cccc(C2(F)C(=O)Nc3sc(Cl)c(-c4ccc(F)cc4O)c3C2=O)c1 (centres unmarked) [No 184, 2-chloro-5-fluoro-3-(4-fluoro-2-hydroxy-phenyl)-5-(m-tolyl)-7H-thieno[2,3-b]pyridine-4,6-dione]
13 | C (C≧75%) | Cc1c(F)ccc(-c2c(Cl)sc3c2C(=O)C(F)(c2ccccc2)C(=O)N3)c1O (centres unmarked) [No 185, 2-chloro-5-fluoro-3-(4-fluoro-2-hydroxy-3-methyl-phenyl)-5-phenyl-7H-thieno[2,3-b]pyridine-4,6-dione]
14 | C (C≧75%) | Cc1cccc(C2(F)C(=O)Nc3sc(Cl)c(-c4ccc(C)c(C)c4)c3C2=O)c1 (centres unmarked) [No 186, 2-chloro-3-(3,4-dimethylphenyl)-5-fluoro-5-(m-tolyl)-7H-thieno[2,3-b]pyridine-4,6-dione]
15 | C (C≧75%) | Cc1ccc(-c2c(Cl)sc3c2C(=O)C(F)(c2cccnc2)C(=O)N3)cc1C (centres unmarked) [No 187, 2-chloro-3-(3,4-dimethylphenyl)-5-fluoro-5-(3-pyridyl)-7H-thieno[2,3-b]pyridine-4,6-dione]
16 | A (0%<A<50%) | O=C1Nc2scc(-c3ccc(Br)cc3)c2C(=O)C1(F)c1ccccn1 (centres unmarked) [No 188, 3-(4-bromophenyl)-5-fluoro-5-(2-pyridyl)-7H-thieno[2,3-b]pyridine-4,6-dione]

Row | Activity: Ratio between the % of control (basal activity) of compound of formula (1) at 30 μM and the % of control (basal activity) of AMP (natural substrate) at 200 μM | Structure (SMILES)
17 | A (0%<A<50%) | O=C1Nc2scc(-c3ccc(F)cc3)c2C(=O)C1(F)c1ccccc1 (centres unmarked) [No 189, 5-fluoro-3-(4-fluorophenyl)-5-phenyl-7H-thieno[2,3-b]pyridine-4,6-dione]
18 | B (50%≦B<75%) | O=C1Nc2scc(-c3cccc(F)c3)c2C(=O)C1(F)c1ccccc1 (centres unmarked) [No 190, 5-fluoro-3-(3-fluorophenyl)-5-phenyl-7H-thieno[2,3-b]pyridine-4,6-dione]
19 | C (C≧75%) | Cc1ccc(-c2c(Cl)sc3c2C(=O)C(F)(c2ccccc2)C(=O)N3)c(O)c1F (centres unmarked) [No 191, 2-chloro-5-fluoro-3-(3-fluoro-2-hydroxy-4-methyl-phenyl)-5-phenyl-7H-thieno[2,3-b]pyridine-4,6-dione]
20 | C (C≧75%) | Cc1ccc(-c2c(C)sc3c2C(=O)C(F)(c2ccccc2)C(=O)N3)c(O)c1F (centres unmarked) [No 192, 5-fluoro-3-(3-fluoro-2-hydroxy-4-methyl-phenyl)-2-methyl-5-phenyl-7H-thieno[2,3-b]pyridine-4,6-dione]
21 | A (0%<A<50%) | O=C1Nc2scc(-c3cnccn3)c2C(=O)C1(F)c1ccccc1 (centres unmarked) [No 193, 5-fluoro-5-phenyl-3-pyrazin-2-yl-7H-thieno[2,3-b]pyridine-4,6-dione]
22 | C (C≧75%) | O=C1Nc2scc(-c3ccc(O)c(F)c3)c2C(=O)C1(F)c1ccccc1 (centres unmarked) [No 194, 5-fluoro-3-(3-fluoro-4-hydroxy-phenyl)-5-phenyl-7H-thieno[2,3-b]pyridine-4,6-dione]
23 | C (C≧75%) | COc1ccc(-c2c(F)sc3c2C(=O)C(F)(c2ccccc2)C(=O)N3)cc1F (centres unmarked) [No 195, 2,5-difluoro-3-(3-fluoro-4-methoxy-phenyl)-5-phenyl-7H-thieno[2,3-b]pyridine-4,6-dione]
24 | A (0%<A<50%) | O=C(O)c1cccc(-c2csc3c2C(=O)C(F)(c2ccccc2)C(=O)N3)c1 (centres unmarked) [No 196, 3-(5-fluoro-4,6-dioxo-5-phenyl-7H-thieno[2,3-b]pyridin-3-yl)benzoic acid]
25 | A (0%<A<50%) | O=C(O)c1cccc(-c2c(F)sc3c2C(=O)C(F)(c2ccccc2)C(=O)N3)c1 (centres unmarked) [No 197, 3-(2,5-difluoro-4,6-dioxo-5-phenyl-7H-thieno[2,3-b]pyridin-3-yl)benzoic acid]
26 | A (0%<A<50%) | O=C(O)c1ccc(-c2csc3c2C(=O)C(F)(c2ccccc2)C(=O)N3)cc1 (centres unmarked) [No 198, 4-(5-fluoro-4,6-dioxo-5-phenyl-7H-thieno[2,3-b]pyridin-3-yl)benzoic acid]
27 | B (50%≦B<75%) | COc1ccc(-c2csc3c2C(=O)C(F)(c2ccc(F)cc2)C(=O)N3)cc1 (centres unmarked) [No 199, 5-fluoro-5-(4-fluorophenyl)-3-(4-methoxyphenyl)-7H-thieno[2,3-b]pyridine-4,6-dione]
28 | B (50%≦B<75%) | COc1ccc(-c2c(F)sc3c2C(=O)C(F)(c2ccc(F)cc2)C(=O)N3)cc1 (centres unmarked) [No 200, 2,5-difluoro-5-(4-fluorophenyl)-3-(4-methoxyphenyl)-7H-thieno[2,3-b]pyridine-4,6-dione]
29 | B (50%≦B<75%) | COc1ccc(-c2csc3c2C(=O)C(F)(c2ccccc2)C(=O)N3)cc1 (centres unmarked) [No 201, 5-fluoro-3-(4-methoxyphenyl)-5-phenyl-7H-thieno[2,3-b]pyridine-4,6-dione]
30 | B (50%≦B<75%) | COc1ccc(-c2c(F)sc3c2C(=O)C(F)(c2ccccc2)C(=O)N3)cc1 (centres unmarked) [No 202, 2,5-difluoro-3-(4-methoxyphenyl)-5-phenyl-7H-thieno[2,3-b]pyridine-4,6-dione]
31 | C (C≧75%) | O=C1Nc2scc(-c3ccc(O)cc3)c2C(=O)C1(F)c1ccccc1 (centres unmarked) [No 203, 5-fluoro-3-(4-hydroxyphenyl)-5-phenyl-7H-thieno[2,3-b]pyridine-4,6-dione]
32 | C (C≧75%) | O=C1Nc2scc(-c3cccc(O)c3)c2C(=O)C1(F)c1ccccc1 (centres unmarked) [No 204, 5-fluoro-3-(3-hydroxyphenyl)-5-phenyl-7H-thieno[2,3-b]pyridine-4,6-dione]

— patent publication US9365584B2, “Thieno [2,3-B] pyridinedione activators of AMPK and therapeutic uses thereof” (Poxel, priority 2009, dated 2016)
